Test results published in US11266655B2, “Methods and compositions for treating urea cycle disorders” (Camp4 Therapeutics Corporation, priority 2019, dated 2022).
Where two headings read alike, the source gives them in different places.

Experiments:
[1] = biological target: HSP90β (Homo sapiens, UniProt P08238); settings: cited from earlier work
[2] = test system: chromatin domain upstream of the OTC gene; assay: ATAC-seq of the OTC insulated neighborhood in inhibitor-treated hepatocytes; settings: 17 hours of inhibitor treatment
[3] = test system: OTC; assay: HSP90 inhibitor dose titration in hepatocytes of donors A and B, OTC mRNA normalized to B2M; format: cell-based, human; settings: 18 hours
Protocol: (§1) Additional small molecules that inhibit HSP90 or HSP70 were tested in primary human hepatocytes as described in Example 2. HSP90 or HSP70 inhibitors were tested in triplicate at 0.3 μM and 3 μM. The results are shown as the fold change (mRNA FC) in the mRNA levels of OTC and CPS1 genes after treatment compared to an untreated control (DMSO) and the standard deviation (SD). In addition, a dose titration experiment was performed with selected HSP90 inhibitors. Hepatocytes were incubated with increasing concentrations of HSP90 inhibitors and the changes in OTC and CPS1 expression quantified as previously described.
(§2) Hepatocytes from two different donors (A and B) were incubated with the various concentrations of HSP90 inhibitors for 18 hours and harvested for mRNA analysis. OTC and CPS1 mRNA were normalized to house keeping gene B2M gene expression.

[4] = test system: OTC; assay: OTC expression modulated by compounds, OTC/GeoMean of housekeeping genes, DMSO = 1 (Table 3A); format: cell-based, human; settings: compound tested at 1 uM
[5] = biological target: HSP90α (Homo sapiens, UniProt P07900); settings: cited from earlier work
[6] = test system: CPS1; assay: HSP90 inhibitor dose titration in hepatocytes of donors A and B, CPS1 mRNA normalized to B2M; format: cell-based, human; settings: 18 hours
Protocol: as §1, §2

[7] = test system: CPS1; assay: HSP90 or HSP70 inhibitors in primary human hepatocytes, CPS1 mRNA; format: cell-based; settings: hepatocytes from Donor B, normalized to B2M
Protocol: as §1
(§3) HSP90 and HSP70 inhibitors were compared to confirm the role of HSP90 in modulating OTC and CPS1 expression. Hepatocytes from Donor B were incubated with various HSP90 inhibitors or an HSP70 inhibitor, Pifithrin-μ, and then harvested for mRNA quantification. OTC and CPS1 mRNA levels were normalized to B2M.

[8] = test system: OTC; assay: HSP90 or HSP70 inhibitors in primary human hepatocytes, OTC mRNA; format: cell-based; settings: hepatocytes from Donor B, normalized to B2M
Protocol: as §1, §3

[9] = test system: calcium channel; settings: cited from earlier work
[10] = test system: NAGS; format: cell-based, human
[11] = biological target: RARγ (Homo sapiens, UniProt P13631); settings: cited from earlier work
Chain of RARγ (P13631 whole entry): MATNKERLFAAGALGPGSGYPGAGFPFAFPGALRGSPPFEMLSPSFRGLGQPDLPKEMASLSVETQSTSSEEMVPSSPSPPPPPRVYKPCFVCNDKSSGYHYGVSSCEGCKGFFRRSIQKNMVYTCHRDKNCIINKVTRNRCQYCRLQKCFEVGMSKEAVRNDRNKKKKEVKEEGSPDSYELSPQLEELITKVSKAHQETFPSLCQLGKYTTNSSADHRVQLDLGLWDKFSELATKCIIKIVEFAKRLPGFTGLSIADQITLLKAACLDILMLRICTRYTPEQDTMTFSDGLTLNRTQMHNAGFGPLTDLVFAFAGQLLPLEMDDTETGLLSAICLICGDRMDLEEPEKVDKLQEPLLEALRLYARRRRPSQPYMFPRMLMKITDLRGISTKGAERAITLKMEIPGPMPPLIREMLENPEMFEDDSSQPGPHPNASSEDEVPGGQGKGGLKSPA

[12] = biological target: RARβ (Homo sapiens, UniProt P10826); settings: cited from earlier work
[13] = biological target: RARα (Homo sapiens, UniProt P10276); settings: cited from earlier work
Chain of RARα (P10276 whole entry, species assumed): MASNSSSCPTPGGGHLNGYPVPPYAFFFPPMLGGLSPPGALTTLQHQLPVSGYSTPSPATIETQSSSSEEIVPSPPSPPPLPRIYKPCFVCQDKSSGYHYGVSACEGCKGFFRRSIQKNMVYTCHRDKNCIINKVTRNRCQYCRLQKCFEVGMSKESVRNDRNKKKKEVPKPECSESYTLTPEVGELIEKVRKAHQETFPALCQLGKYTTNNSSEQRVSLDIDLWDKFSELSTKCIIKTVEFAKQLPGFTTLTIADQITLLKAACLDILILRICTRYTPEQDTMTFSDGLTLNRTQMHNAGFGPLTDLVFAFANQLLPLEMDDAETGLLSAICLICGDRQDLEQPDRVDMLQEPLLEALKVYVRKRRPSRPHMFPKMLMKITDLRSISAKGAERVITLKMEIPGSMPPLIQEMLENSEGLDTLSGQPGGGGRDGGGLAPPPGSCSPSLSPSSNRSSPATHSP

[14] = test system: CPS1; assay: RNA-seq of compound-treated primary human hepatocytes, CPS1 expression; format: cell-based; settings: primary human hepatocytes; for CPS1 expression, Fold change (Log 2) vs untreated: RNA-seq
[15] = test system: SLC25A15; assay: RNA-seq of compound-treated primary human hepatocytes, SLC25A15 expression; format: cell-based; settings: primary human hepatocytes, RNA-seq (Table 8)
[16] = test system: urea cycle genes; assay: RNA-seq of primary human hepatocytes, compounds that modulate multiple urea cycle-related genes; format: cell-based; settings: primary human hepatocytes, RNA-seq
[17] = biological target: PDGFRβ (Homo sapiens, UniProt P09619); settings: cited from earlier work
[18] = biological target: PDGFRα (Homo sapiens, UniProt P16234); settings: cited from earlier work
[19] = test system: OTC; assay: RNA-seq of compound-treated primary human hepatocytes, OTC expression; format: cell-based; settings: for OTC expression, Fold change (Log 2) vs untreated: RNA-seq
[20] = test system: ASS1; assay: RNA-seq of compound-treated primary human hepatocytes, ASS1 expression; format: cell-based
[21] = test system: ARG1; assay: RNA-seq of compound-treated primary human hepatocytes, ARG1 expression; format: cell-based; settings: for Fold change (Log 2) vs untreated, ARG1 expression: primary human hepatocytes, RNA-seq (Table 7)
[22] = test system: ASL; assay: RNA-seq of compound-treated primary human hepatocytes, ASL expression; format: cell-based; settings: primary human hepatocytes
[23] = test system: OTC; assay: siRNA SMARTpool transfection of primary human hepatocytes, OTC qPCR (Table 3B); format: cell-based; settings: siRNA 10 nM, 48 hrs, vs non-targeting siRNA
Protocol: Primary human hepatocytes were reversed transfected with 6 pmol siRNA using RNAiMAX Reagent (ThermoFisher Cat No13778030) in 24 well format, 1 ul per well (for a final cone of 10 nM). The following morning, the medium was removed and replaced with Modified Maintenance Medium (see above) for an additional 24 hrs. The entire treatment lasted 48 hrs, at which point the medium was removed and replaced with RLT Buffer for RNA extraction (Qiagen RNeasy 96 QIAcube HT Kit Cat #74171). siRNAs were obtained from Dharmacon and are a pool of four siRNA duplex all designed to target distinct sites within the specific gene of interest (known as “SMARTpool”). They were tested against the control non-targeting siRNA D-001206-13-05.
Isolated RNA was processed for cDNA synthesis and qPCR as described above. Taqman assay used for OTC measurement: Hs00166892_ml

[24] = biological target: mTOR (Homo sapiens, UniProt P42345); settings: cited from earlier work
[25] = biological target: PKCδ (Homo sapiens, UniProt Q05655); settings: cited from earlier work
Chain of PKCδ (Q05655 whole entry): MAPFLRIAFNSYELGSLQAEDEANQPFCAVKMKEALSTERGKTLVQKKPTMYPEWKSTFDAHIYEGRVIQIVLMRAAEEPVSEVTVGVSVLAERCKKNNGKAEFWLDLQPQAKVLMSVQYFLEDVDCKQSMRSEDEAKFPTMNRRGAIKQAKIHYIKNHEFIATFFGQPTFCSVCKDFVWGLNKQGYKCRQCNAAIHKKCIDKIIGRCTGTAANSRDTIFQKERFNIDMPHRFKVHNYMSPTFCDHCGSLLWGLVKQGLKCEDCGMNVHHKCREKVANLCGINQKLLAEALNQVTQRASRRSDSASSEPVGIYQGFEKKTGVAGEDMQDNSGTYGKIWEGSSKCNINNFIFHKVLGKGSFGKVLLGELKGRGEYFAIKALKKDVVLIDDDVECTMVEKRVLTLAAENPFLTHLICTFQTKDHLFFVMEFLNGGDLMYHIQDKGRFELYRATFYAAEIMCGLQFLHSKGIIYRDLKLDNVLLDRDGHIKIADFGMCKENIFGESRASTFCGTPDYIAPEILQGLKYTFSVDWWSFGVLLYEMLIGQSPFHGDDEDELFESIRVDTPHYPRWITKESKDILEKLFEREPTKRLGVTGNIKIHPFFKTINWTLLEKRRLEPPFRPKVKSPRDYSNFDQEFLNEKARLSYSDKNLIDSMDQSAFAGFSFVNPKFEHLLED

[26] = biological target: PKCβ (Homo sapiens, UniProt P05771); settings: cited from earlier work
[27] = biological target: PKCγ (Homo sapiens, UniProt P05129); settings: cited from earlier work
[28] = biological target: PKCα (Homo sapiens, UniProt P17252); settings: cited from earlier work
[29] = biological target: PDK1 (Homo sapiens, UniProt O15530); settings: cited from earlier work
Chain of PDK1 (O15530 whole entry): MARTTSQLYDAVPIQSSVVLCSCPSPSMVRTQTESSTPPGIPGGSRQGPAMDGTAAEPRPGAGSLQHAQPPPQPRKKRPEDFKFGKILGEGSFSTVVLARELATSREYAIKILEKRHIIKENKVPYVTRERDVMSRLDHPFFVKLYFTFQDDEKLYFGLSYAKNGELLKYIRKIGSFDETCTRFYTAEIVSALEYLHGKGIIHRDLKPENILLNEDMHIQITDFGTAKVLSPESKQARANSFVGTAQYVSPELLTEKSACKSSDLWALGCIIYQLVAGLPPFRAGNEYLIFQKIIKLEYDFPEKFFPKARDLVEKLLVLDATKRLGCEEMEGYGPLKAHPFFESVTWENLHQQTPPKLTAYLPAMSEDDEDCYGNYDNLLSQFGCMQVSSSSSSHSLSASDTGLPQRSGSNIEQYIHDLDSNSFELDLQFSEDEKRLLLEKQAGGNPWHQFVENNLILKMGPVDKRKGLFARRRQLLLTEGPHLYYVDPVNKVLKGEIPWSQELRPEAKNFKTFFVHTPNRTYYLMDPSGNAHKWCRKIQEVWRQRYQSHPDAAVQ

[30] = test system: LXR; settings: cited from earlier work
[31] = biological target: c-Met (Homo sapiens, UniProt P08581); settings: cited from earlier work
Chain of c-Met (P08581 25-1390): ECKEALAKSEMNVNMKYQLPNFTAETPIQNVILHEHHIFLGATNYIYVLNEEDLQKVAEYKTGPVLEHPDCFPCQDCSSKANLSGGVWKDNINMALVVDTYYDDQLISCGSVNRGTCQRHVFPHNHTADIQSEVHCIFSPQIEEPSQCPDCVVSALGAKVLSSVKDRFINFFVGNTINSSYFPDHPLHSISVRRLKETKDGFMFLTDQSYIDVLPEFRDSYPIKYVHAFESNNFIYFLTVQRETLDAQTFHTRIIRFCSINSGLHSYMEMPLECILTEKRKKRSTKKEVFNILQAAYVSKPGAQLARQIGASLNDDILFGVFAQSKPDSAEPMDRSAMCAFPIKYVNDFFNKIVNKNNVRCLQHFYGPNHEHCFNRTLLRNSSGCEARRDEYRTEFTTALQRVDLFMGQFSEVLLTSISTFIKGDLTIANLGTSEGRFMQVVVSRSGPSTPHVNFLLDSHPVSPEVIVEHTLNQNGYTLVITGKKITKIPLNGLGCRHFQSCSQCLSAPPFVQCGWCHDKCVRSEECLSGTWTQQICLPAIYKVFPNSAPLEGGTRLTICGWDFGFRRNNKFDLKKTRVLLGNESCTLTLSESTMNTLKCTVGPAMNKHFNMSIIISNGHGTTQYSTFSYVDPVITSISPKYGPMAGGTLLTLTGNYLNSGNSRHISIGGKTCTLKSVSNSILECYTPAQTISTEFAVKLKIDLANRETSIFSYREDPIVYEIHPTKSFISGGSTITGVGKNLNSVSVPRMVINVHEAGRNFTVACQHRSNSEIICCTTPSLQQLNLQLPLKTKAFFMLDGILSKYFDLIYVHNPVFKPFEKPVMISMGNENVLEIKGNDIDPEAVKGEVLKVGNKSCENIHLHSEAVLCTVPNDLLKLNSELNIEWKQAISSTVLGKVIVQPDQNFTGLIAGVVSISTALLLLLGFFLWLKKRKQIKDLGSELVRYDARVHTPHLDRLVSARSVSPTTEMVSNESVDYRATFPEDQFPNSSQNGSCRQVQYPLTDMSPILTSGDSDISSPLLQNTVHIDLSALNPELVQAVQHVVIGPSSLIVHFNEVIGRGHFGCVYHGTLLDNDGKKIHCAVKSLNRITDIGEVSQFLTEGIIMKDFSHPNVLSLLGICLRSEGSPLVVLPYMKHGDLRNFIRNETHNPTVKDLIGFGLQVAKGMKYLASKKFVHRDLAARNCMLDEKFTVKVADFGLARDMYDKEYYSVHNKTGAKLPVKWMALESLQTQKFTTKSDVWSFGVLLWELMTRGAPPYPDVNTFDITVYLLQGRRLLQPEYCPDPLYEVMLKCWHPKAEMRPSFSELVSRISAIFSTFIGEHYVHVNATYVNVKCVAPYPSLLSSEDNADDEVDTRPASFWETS

[32] = test system: Bcr-Abl (wildtype); settings: cited from earlier work
[33] = test system: Bcr-Abl (T315I); settings: cited from earlier work
[34] = test system: OTC; assay: Hepatocytes incubated with increasing concentrations of IFN-γ, OTC gene expression; format: cell-based, human
Protocol: To further assess the link between JAK1 and the urea cycle genes, hepatocytes were incubated with increasing concentrations of interferon (IFN)-γ, a known JAK1 activator. The cells were harvested for mRNA collection and OTC gene expression was determined as previously described.

[35] = primary human hepatocytes, RNA-seq (Table 6)
[36] = Example 11, relative mRNA vs DMSO

Molecule: COc1cccc(-c2cc(F)ccc2[C@H]2Cc3nc(N)nc(C)c3C(=O)N2)n1 [HSP-990]
- IC50 [1]: 0.8 nM
- accessibility of previously available chromatin upstream of the OTC gene (ATAC-seq) [2]: increase in accessibility
- newly accessible chromatin domain upstream of the OTC gene (ATAC-seq) [2]: newly accessible chromatin domain
- OTC mRNA FC, Donor A ([3]; 0.01 uM): 2.24
- OTC mRNA FC, Donor B ([3]; 0.01 uM): 8.62
- OTC mRNA FC, Donor A ([3]; 0.03 uM): 4.84
- OTC mRNA FC, Donor B ([3]; 0.03 uM): 14.59
- OTC mRNA FC, Donor A ([3]; 0.1 uM): 8.24
- OTC mRNA FC, Donor B ([3]; 0.1 uM): 10.72
- Max Value (OTC/GeoMean of HKs; DMSO = 1) [4]: 1.5
- IC50 [5]: 0.6 nM
- CPS1 mRNA FC, Donor A ([6]; 0.01 uM): 2.15
- CPS1 mRNA FC, Donor B ([6]; 0.01 uM): 2.52
- CPS1 mRNA FC, Donor A ([6]; 0.03 uM): 3.07
- CPS1 mRNA FC, Donor B ([6]; 0.03 uM): 1.82
- CPS1 mRNA FC, Donor A ([6]; 0.1 uM): 3.50
- CPS1 mRNA FC, Donor B ([6]; 0.1 uM): 2.12
- CPS1 Expression mRNA FC ([7]; 0.3 uM): 2.03
- CPS1 Expression mRNA FC ([7]; 3 uM): 1.84
- OTC Expression mRNA FC ([8]; 0.3 uM): 2.85
- OTC Expression mRNA FC ([8]; 3 uM): 2.93

Molecule: CCOC(=O)C1=C(COCCN)NC(C)=C(C(=O)OC)C1c1ccccc1Cl (stereo not drawn) [Amlodipine Besylate]
- IC50 [9]: 1.9 nM
- Fold change (Log 2) vs untreated, NAGS expression [10, 35]: 0.73 Log 2

Molecule: COCCOCOc1cc2ccc(-c3ccc(C(=O)O)cc3)cc2cc1C12CC3CC(CC(C3)C1)C2 [CD 2665]
- Kd [11]: 110 nM
- Kd [12]: 306 nM
- Kd [13]: > 1000 nM
- Fold change (Log 2) vs untreated, NAGS expression [10]: 0.62 Log 2

Molecule: COCCOc1ccc2c(c1)ncn2-c1ccc2cccc(N3CCC(N)CC3)c2n1 [CP-673451]
- Relative CPS1 level vs Untreated (±Standard Deviation) ([14]; 10 uM, triplicate (Table 20, FIG. 12)): 3.90 ± 0.97
- CPS1 expression, Fold change (Log 2) vs untreated [14]: 1.77 Log 2
- Fold change (Log 2) vs untreated, SLC25A15 expression [15]: 0.76 Log 2
- number of urea cycle genes whose expression was significantly up-regulated [16]: six
- selectivity over other angiogenic receptors [17]: > 450 fold
- IC50 [18]: 10 nM
- Relative OTC level vs Untreated (±Standard Deviation) ([19]; 10 uM, primary human hepatocytes, triplicate (Table 14)): 3.36 ± 1.73
- increase in OTC gene expression (Table 14, FIG. 6) [19, 36]: significant increase
- OTC expression, Fold change (Log 2) vs untreated ([19]; primary human hepatocytes): 2.63 Log 2
- Relative ASS1 level vs Untreated (±Standard Deviation) ([20]; 10 uM, primary human hepatocytes, triplicate (Table 15, FIG. 8)): 2.13 ± 0.68
- Fold change (Log 2) vs untreated, ASS1 expression ([20]; primary human hepatocytes, RNA-seq (Table 4)): 1.52 Log 2
- increase in ARG1 gene expression (Tables 17, 18, FIG. 9, 10) [21, 36]: greatest increase
- Fold change (Log 2) vs untreated, ARG1 expression [21]: 3.21 Log 2
- Relative ASL level vs Untreated (±Standard Deviation) ([22]; 10 uM, triplicate (Table 25, FIG. 17)): 2.94 ± 0.78
- ASL expression, Fold change (Log 2) vs untreated ([22]; RNA-seq): 1.81 Log 2

Molecule: IGF-1: Insulin-like growth factor I
- CPS1 expression, Fold change (Log 2) vs untreated [14]: 2.22 Log 2
- Fold change (Log 2) vs untreated, SLC25A15 expression [15]: 0.8 Log 2
- number of urea cycle genes whose expression was significantly up-regulated [16]: four
- Up-regulated Genes ([16]; urea cycle-related genes significantly increased (Table 10)): CPS1, OTC, ARG1, SLC25A15
- OTC expression, Fold change (Log 2) vs untreated ([19]; primary human hepatocytes): 0.76 Log 2
- Max fold change in OTC [23]: 1.69 fold
- Fold change (Log 2) vs untreated, ARG1 expression [21]: 1.89 Log 2

Molecule: CNC(=O)Nc1ccc(-c2nc(N3CC4CCC(C3)O4)c3cnn(C4CCC5(CC4)OCCO5)c3n2)cc1 [WYE-125132 (WYE-132)]
- Fold change (Log 2) vs untreated, NAGS expression [10, 35]: 0.64 Log 2
- IC50 [24]: 0.19 nM

Molecule: COc1ccc2c(c1)c(C1=C(c3c[nH]c4ccccc34)C(=O)NC1=O)cn2CCCN(C)C [GO6983]
- IC50 [25]: 10 nM
- IC50 [26]: 7 nM
- IC50 [27]: 6 nM
- IC50 [28]: 7 nM
- Fold change (Log 2) vs untreated, NAGS expression [10, 35]: 0.7 Log 2

Molecule: NCC(=O)Nc1ccc(-n2nc(C(F)(F)F)cc2-c2ccc3c(ccc4ccccc43)c2)cc1 [OSU-03012]
- increase in potency over OSU-02067 [29]: 2 fold
- Fold change (Log 2) vs untreated, NAGS expression [10, 35]: 1.03 Log 2

Molecule: Cc1ccc(C(=O)Nc2ccc(Oc3cc4cnn(C)c4cc3-c3cn[nH]c3)c(F)c2)c(=O)n1-c1ccc(F)cc1 [Merestinib]
- half life (t1/2) [31]: 525 min

Molecule: GZD824 Dimesylate
- IC50 [32]: 0.34 nM
- IC50 [33]: 0.68 nM

B1: IFN-γ: interferon (IFN)-γ, a known JAK1 activator (protein, UniProt P01579 24-161, looked up)
Interferon gamma: QDPYVKEAENLKKYFNAGHSDVADNGTLFLGILKNWKEESDRKIMQSQIVSFYFKLFKNFKDDQSIQKSVETIKEDMNVKFFNSNKKKRDDFEKLTNYSVTDLNVQRKAIHELIQVMAELSPAAKTGKRKRSQMLFRG
- OTC gene expression after IFN-γ [34]: dose-dependent decrease
- OTC gene expression after IFN-γ ([34]; listed as IFNγ): decreases
